# Measured values taken from US8404646B2, “Methods for preventing or treating mitochondrial permeability transition” (Cornell Research Foundation, Inc., priority 2003, dated 2013).
# “Also recorded” adds a separate entry of the source. Non-standard residues stand in square brackets, D forms with d. Residues, ends and D or L forms follow the SMILES beside them. Dmt = Cc1cc(O)cc(C)c1C[C@H](N)C(=O)O
# How the values were obtained:
# Sprague-Dawley rats [1] = assay: Assessment of arrhythmias in infarction/reperfusion; format: in vivo, rat; conditions: 3 mg/kg IP twice, entire study period
# Method: (§1) Adult male […] rats (F344 strain, National Institute of Aging, maintained by Harian Sprague-Dawley Inc.), weighting between 285 and 425 gm, were used. […]
# An ECG was recorded continuously from a standard lead II (AC AMP 700) inserted into the limbs of all rats. […] The cardiac arrhythmias were monitored and assessed in accordance with the Lambeth Convention. […] A validated score was used to quantify the severity of cardiac arrhythmias. […]
# All values are expressed as mean±standard error of mean (S.E.M.). […] Differences among groups in body weight, heart rate, arrhythmia, area at risk as a percentage of the left ventricle, and area of infarction as a percentage of the area at risk were analyzed using ANOVA. If significant differences were detected, comparisons between the control group and the 2 treatment groups were conducted using the Mann-Whitney U-test. […]
# [2] = tested on: mitochondrial permeability transition (MPT) in isolated mitochondria; assay: Mitochondrial membrane potential and MPT measured with TMRM; format: biochemical, mouse; conditions: pretreatment 10 μM
# Method: In addition to having no direct effect on mitochondrial potential, [Dmt^1]DALDA was able to protect against MPT induced by Ca^2+ overload.
# 3-Nitropropionic acid (3NP) is an irreversible inhibitor of succinate dehydrogenase in complex II of the electron transport chain. Addition of 3NP (1 mM) to isolated mitochondria caused dissipation of mitochondrial potential and onset of MPT (FIG. 2C).
# isolated mitochondria [3] = assay: Mitochondrial swelling (absorbance 540 nm or light scattering 570 nm); format: biochemical, mouse; conditions: 50 μM peptide, light scattering at 570 nm
# Method: (§2) MPT pore opening results in mitochondrial swelling. We examined the effects of [Dmt^1]DALDA on mitochondrial swelling by measuring reduction in absorbance at 540 nm (A540). The mitochondrial suspension was then centrifuged and cytochrome c in the mitochondrial pellet and supernatant determined by a commercially-available ELISA kit.
# (§3) The methods for study are as described above for SS-02. In this example, mitochondrial swelling was measured using light scattering monitored at 570 nm.
# Sprague-Dawley rats [4] = assay: Myocardial infarction/reperfusion, area at risk and area of infarction; format: in vivo, rat; conditions: 3 mg/kg IP 30 min before ligation and 5 min before reperfusion; 1 h ischemia, 1 h reperfusion
# Method: as §1
# After anesthesia with ketamine (90 mg/kg IP) and xylazine (4 mg/kg IP), a tracheotomy was performed, and the rat was intubated with polyethylene tube and ventilated (Harvard Rodent Ventilator model 683) with room air and a tidal volume of 0.65 ml/100 gm of body weight at 90 breaths per minute. […] Peripheral limb electrodes were inserted subcutaneously and electrocardiogram was monitored throughout the procedure. […]
# At the end of reperfusion, the left coronary artery was briefly re-occluded and Evans blue dye solution (2 ml of 2%, Sigma) was slowly injected into the jugular vein to distinguish the perfused area (blue staining) from the area at risk (no staining). […] After a 14-day formalin immersion, the slices were scanned again and all scanned areas were quantified with NIH Imagesoftware. […]
# N2A cells = assay: tBHP-induced mitochondrial depolarization (TMRM, confocal); format: cell-based; conditions: 50 μM tBHP, 1 nM peptide, 6 h
# Method: FIG. 7. SS-31 protected against tBHP-induced mitochondrial depolarization and viability. N2A cells were plated in glass bottom dishes and treated with (A) control, or with (B) 50 μM tBHP, alone or with (e) 1 nM SS-31, for 6 hours. Cells were loaded with TMRM (20 nM) and imaged by confocal laser scanning microscopy using ex/em of 552/570 nm.
# To investigate whether SS-31 prevents mitochondria) depolarization caused by tBHP, N2A cells were treated with 50 μM tBHP for 6 h.
# [5] = tested on: isolated perfused guinea pig heart; assay: Ischemia-reperfusion myocardial stunning in isolated perfused heart (Langendorff); conditions: 1 nM
# Method: Guinea pig hearts were rapidly isolated, and the aorta was cannulated in situ and perfused in a retrograde fashion with an oxygenated Krebs-Henseleit solution (pH 7.4) at 34° C. The heart was then excised, mounted on a modified Langendorff perfusion apparatus, and perfused at constant pressure (40 cm H2O). Contractile force was measured with a small hook inserted into the apex of the left ventricle and the silk ligature tightly connected to a force-displacement transducer. Coronary flow was measured by timed collection of pulmonary artery effluent.
# Reperfusion was carried out with the same solution used prior to ischemia.
# isolated mitochondria [6] = assay: Cytochrome c release from isolated mitochondria (ELISA); format: biochemical, mouse; conditions: Ca2+ overload
# Method: as §2, §3
# [7] = Body weight and heart rate during the infarction/reperfusion experiment; format: in vivo, rat
# Method: Adult male […] rats (F344 strain, National Institute of Aging, maintained by Harian Sprague-Dawley Inc.), weighting between 285 and 425 gm, were used. Twenty-four rats (n=8/group) were randomly assigned to one of three groups: (1) Control group was given 0.4 ml of saline as an intra-peritoneal (IP) injection 30 minutes before the ligation of left anterior descending coronary artery, followed by same IP dose injection 5 minutes before reperfusion; (2) SS-31 group was treated with SS-31 (3 mg/kg dissolved in 0.4 ml of saline) as an IP injection 30 minutes before the ligation followed by same IP dose injection as maintenance 5 minutes before reperfusion; and (3) SS-20 group was treated with SS-20 (3 mg/kg dissolved in 0.4 ml of saline) as an IP injection 30 minutes before the ligation followed by same dose IP injection as maintenance just 5 minutes before reperfusion. Also, Sham-operated rats (n=3) were used to account for possible effects related to the surgical protocol. All procedures were performed in a blinded manner, with the groups assigned letters and their identities unknown to the operators. Likewise, the two independent investigators analyzing the data were blind to the treatment assignments.
# After anesthesia with ketamine (90 mg/kg IP) and xylazine (4 mg/kg IP), a tracheotomy was performed, and the rat was intubated with polyethylene tube and ventilated (Harvard Rodent Ventilator model 683) with room air and a tidal volume of 0.65 ml/100 gm of body weight at 90 breaths per minute. Body temperature was maintained at 37° C. by using a heated operating table. The internal jugular vein was surgically exposed and a polyethylene tube was inserted for Evans blue dye solution injection. Peripheral limb electrodes were inserted subcutaneously and electrocardiogram was monitored throughout the procedure.
# An ECG was recorded continuously from a standard lead II (AC AMP 700) inserted into the limbs of all rats. The ECG was printed at 25 mm/second. The cardiac arrhythmias were monitored and assessed in accordance with the Lambeth Convention. The assessment was performed in a blinded manner using the original paper recordings. A validated score was used to quantify the severity of cardiac arrhythmias. The score consisted of six types: 0, no ventricular extrasystoles (VES), ventricular tachycardia (VT) or ventricular fibrillation (VF); 1=VES; 2=one to five episodes of VT (more than four coupled VES); 3=more than five episodes of VT and/or one VF; 4=two to five episodes of VF; 5=more than five episodes of VF.
# All values are expressed as mean±standard error of mean (S.E.M.). Statistical analyses were performed using SPSS version 10. Differences among groups in body weight, heart rate, arrhythmia, area at risk as a percentage of the left ventricle, and area of infarction as a percentage of the area at risk were analyzed using ANOVA. If significant differences were detected, comparisons between the control group and the 2 treatment groups were conducted using the Mann-Whitney U-test. A two-tailed p<0.05 was regarded as significant.
smiles,measurement,setting,value
"Cc1cc(O)cc(C)c1C[C@H](NC(=O)[C@H](N)CCCNC(=N)N)C(=O)N[C@@H](CCCCN)C(=O)N[C@@H](Cc1ccccc1)C(N)=O [SS-31, D-Arg-2′6′Dmt-Lys-Phe-NH2] (H-[dR][Dmt]KF-NH2; N-terminus assumed)",Severity and occurrence rate of cardiac arrhythmias (score),Sprague-Dawley rats [1],5 points
same,MPT induced by Ca2+ overload,[2],same ability to protect; also recorded: prevents onset of MPT
same,mitochondrial swelling induced by Ca2+,isolated mitochondria [3],same ability to protect; also recorded: inhibited mitochondrial swelling
same,AAR/LV ratio (area at risk relative to left ventricle),Sprague-Dawley rats [4],55.9±1.4%
same,AI/AAR ratio (area of infarction as percentage of area at risk),Sprague-Dawley rats [4],53.9±1.1%
same,tBHP-induced loss of mitochondrial potential (TMRM fluorescence),N2A cells,completely blocked; also recorded: protected
same,cardiac stunning,[5],complete inhibition of cardiac stunning
same,coronary flow throughout reperfusion,[5],well-sustained
same,heart rate,[5],no decrease
same,myocardial contractile force during ischemia-reperfusion,[5]; 30 min global ischemia,tolerated ischemia much better than buffer-treated hearts; also recorded: protects myocardial contractile force
same,Ca2+-induced release of cytochrome c,isolated mitochondria [6],same ability to protect
same,Heart Rate Baseline,[7]; Baseline,257 ± 10
same,Heart Rate Ischemia,[7]; first column,184 ± 14
same,Heart Rate Ischemia,[7]; second column,169 ± 15
same,Heart Rate Open chest,[7]; Open chest,236 ± 8
same,Heart Rate Reperfusion,[7]; first column,161 ± 12
same,Heart Rate Reperfusion,[7]; second column,164 ± 13
